# From patent US8158606B2, “β-L-2′-deoxynucleosides for the treatment of resistant HBV strains and combination therapies” (priority 2002, dated 2012)
# Read-outs that look alike come from different tables or passages of the source.
# How the values were obtained:
# [1] = system: human peripheral blood mononuclear cells (PBMCs), bone marrow progenitor cells and numerous cell lines; test: Cytotoxicity of L-dC; assay type: cell-based, human and other non-human mammalian
# Source text: Human DNA polymerases and mitochondrial function were not affected by L-dC in vitro. L-dC was non-cytotoxic to human peripheral blood mononuclear cells (PBMCs), bone marrow progenitor cells and numerous cell lines of human and other non-human mammalian origin.
# [2] = Single dose bioavailability of L-dC in the cynomologus monkey; assay type: in vivo, cynomolgus monkey; conditions: for AUC(0-t) / half-life: n=3, mean; for AUC(0-t): read-out: AUClast of L-dC; for half-life: in vivo
# Method: The pharmacokinetics of L-dC following IV and oral administration of L-dC to cynomolgus monkeys was determined.
# [3] = cynomolgus monkey, blood, L-dC 10 mg/kg single IV dose
# [4] = cynomolgus monkey, blood, L-dC 10 mg/kg single oral dose
compound,measurement,setting,value
"Nc1ccn([C@@H]2CC(O)[C@H](CO)O2)c(=O)n1 (stereo partly drawn) [L-dC, 2′-Deoxy-β-L-cytidine]",cytotoxicity in words,[1],non-cytotoxic
same,L-dC as share of the dose recovered in the urine,[2]; L-dC 10 mg/kg IV,94%
same,administered dose recovered in urine within 2 hours,[2]; L-dC 10 mg/kg IV,71%
same,renal clearance as share of total L-dC clearance,[2]; L-dC 10 mg/kg IV,87%
same,L-dC as share of drug excreted in the urine,[2]; L-dC 10 mg/kg oral,~69%
same,administered oral dose recovered in urine after 72 hours,[2]; L-dC 10 mg/kg oral,15.5%
same,administered oral dose recovered in urine within 12 hours,[2]; L-dC 10 mg/kg oral,Approximately 8.5%
same,CL renal,"[2]; cynomolgus monkey, blood and urine, L-dC 10 mg/kg single IV dose, mean, read-out: renal clearance (CLR) (converted)",7.67 mL/min/kg
same,bioavailability,"[2]; cynomolgus monkey, blood, L-dC 10 mg/kg oral vs IV, mean, read-out: oral bioavailability (F)",16.4%
same,Tmax,[2]; [3],0 h
same,Cmax,"[2]; cynomolgus monkey, blood, L-dC 10 mg/kg single IV dose, mean, at 15 minutes post-dose",95.7 µM
same,Vd,"[2]; cynomolgus monkey, blood, L-dC 10 mg/kg single IV dose, mean, read-out: apparent volume of distribution (Vd)",1.22 L/kg
same,clearance,"[2]; cynomolgus monkey, blood, L-dC 10 mg/kg single IV dose, mean, read-out: total clearance (CL) (converted)",8.83 mL/min/kg
same,AUC(0-t),[2]; [3],81.1 µM·h
same,Cmax,[2]; [4],3.38 µM
same,Tmax,"[2]; cynomolgus monkey, blood, L-dC 10 mg/kg single oral dose, mean",2.33 h
same,AUC(0-t),[2]; [4],13.7 µM·h
same,half-life,"[2]; cynomolgus monkey, L-dC 10 mg/kg single IV dose, read-out: t1/2 of L-dC (converted)",1.59 h
same,half-life,"[2]; cynomolgus monkey, L-dC 10 mg/kg single oral dose, read-out: terminal t1/2 of L-dC (converted)",2.95 h
